# Test results as given in the Bradley open melting point set (2014).
row,SMILES,melting point [°C]
1,"O=C(c1ccco1)C(O)c1ccco1 (centres undefined) [2,2'-furoin]",138
2,O=C1C(c2ccccn2)=Nc2ccccc21 [2-pyridin-2-yl-3H-indol-3-one],186
3,c1ccc(-c2ccc(-c3ccccc3)cc2)cc1 [p-terphenyl],213
4,"ClCC(Cl)(Cl)Cl [1,1,1,2-Tetrachloroethane]",-70
5,C#CCCCCCCCCCCCCC [1-pentadecyne],10
6,CCCCCCCCCCCCCCCO [1-pentadecanol],46
7,O=C(O)c1ccc(C(=O)O)c(Br)c1 [2-bromoterephthalic acid],299
8,"ClCCCCCl [1,4-dichlorobutane]",-37
9,C=CCC1(CC(C)C)C(=O)NC(=O)NC1=O [butalbital],140
10,C=C(C)CC [2-Methylbut-1-ene],-137
11,"CN1CCCN(C)CCN(C)CCCN(C)CC1 [1,4,8,11-tetramethyl-1,4,8,11-tetraazacyclotetradecane]",35
12,C#CC1(O)CCC2C3CC=C4C=C(C(C)(C)C(=O)O)CCC4(C)C3CCC21C (centres undefined),259
13,"Brc1cccc(Br)c1 [1,3-dibromobenzene]",-7
14,Cc1ccc(-c2ccc(/C=C3\N=C(c4ccccc4)OC3=O)o2)cc1,150
15,O=c1[nH]c2ccccc2n1CCCN1CCC(n2c(=O)[nH]c3cc(Cl)ccc32)CC1 [Domperidone],242
16,CCCC(=O)c1cc2ccccc2oc1=O [3-butyrylcoumarin],94

# More lines, now with the values ahead:
row,melting point [°C],SMILES
1,213,Cc1n[nH]c(=O)[nH]c1=O [6-azathymine]
2,22,COc1ccc(C(=O)Cl)cc1 [4-Methoxybenzoyl chloride]
3,158,O=c1cc(-c2ccccc2)oc2c1ccc1ccccc12 [alpha-naphthoflavone]
4,29,OCCNCCO [diethanolamine]
5,198,O=C(O)/C(=C/c1ccccc1[N+](=O)[O-])c1ccccc1 [(E)-2-phenyl-3-(2-nitrophenyl)propenoic acid]
6,169,CO[C@H]1O[C@H](CO)[C@@H](O)[C@H](O)[C@H]1O [methyl alpha-d-glucopyranoside]
7,230,CCCCNc1cc(C(=O)O)cc(S(N)(=O)=O)c1Oc1ccccc1 [bumetanide]
8,166,COc1ccc(C(N)=O)cc1 [4-methoxybenzamide]
9,43,Brc1cccc2cc[nH]c12 [7-bromoindole]
10,274,Cn1c(=O)c2nc[nH]c2n(C)c1=O [Theophylline]
11,212,CC(=O)C=C(C)[O][Co]([O]C(C)=CC(C)=O)[O]/C(C)=C\C(C)=O [Cobalt(3+) tris[(2Z)-4-oxopent-2-en-2-olate]]
12,135,O=C(Oc1ccccc1C(=O)O)c1ccccc1O [salicylsalicylic acid]
13,108,Cc1c(N(C)C)c(=O)n(-c2ccccc2)n1C [Aminopyrine]
14,130,CC(C)(C)NCC(O)COc1cccc2c1C[C@H](O)[C@H](O)C2 (some centres undefined) [Nadolol]
15,145,C[C@@H](O)[C@H](O)[C@H](O)[C@@H](O)C=O [D-fucose]
16,-40,CCCNCCC [N-Propylpropan-1-amine]
17,101,BBBBBBBBBB [decaborane]
18,220,"C[C@]12CCC(=O)C=C1CC[C@@H]1[C@@H]2[C@@H](O)C[C@@]2(C)[C@H]1CC[C@]2(O)C(=O)CO [(11beta)-11,17,21-Trihydroxypregn-4-ene-3,20-dione]"
19,262,OCC(CO)(CO)CO [pentaerythritol]
20,202,COc1ccc(OC)c(C(O)CNC(=O)CN)c1 (centres undefined) [Midodrine]
21,106,Cc1cn(C2CC(N=[N+]=[N-])C(CO)O2)c(=O)[nH]c1=O (centres undefined) [zidovudine]
22,87,CN1CCC(CN2c3ccccc3Sc3ccccc32)C1 (centres undefined) [methdilazine]
23,-44,COC(=O)[C@H](C)O [methyl (S)-lactate]
